Patent publication US20250326744A1, “PIPERAZINE DERIVATIVE OR SALT THEREOF, AND PHARMACEUTICAL COMPOSITION” (priority 2022, published 2025)
Counter-ions that a name gives are not always drawn.

Key:
mexB (PA) strain = test: Combinational effect with antibacterial agent against Pseudomonas aeruginosa (Test Examples 2 and 4): mexB (PA) strain with LVFX, TC or AZT at 1/4 MIC, EC99; format: cell-based; conditions: Table 52, Test Example 2, 16 to 20 hours culture, OD595; for EC99, mexB (PA), AZT: combined with AZT at 1/4 MIC; for EC99, mexB (PA), LVFX: combined with LVFX at 1/4 MIC; for EC99, mexB (PA), TC: combined with TC at 1/4 MIC
How it was run: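 P. aeruginosa mexB (PA) strain, lacking MexCD-OprJ, MexEF-OprN and MexXY and overexpressing MexAB-OprM, grown 16–20 h in CAMHB (10^4–5 CFU/well) with LVFX, TC or AZT at ¼ MIC plus test compound at 0–800 μM. Growth read as OD595; EC99 is the lowest compound concentration giving ≥99% growth inhibition.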

S-3769 strain = test: Combinational effect with antibacterial agent against Pseudomonas aeruginosa (Test Examples 2 and 4): S-3769 strain with AMK or GM at 1/4 MIC, EC99; format: cell-based; conditions: Table 52, Test Example 2, 16 to 20 hours culture, OD595; for EC99, S-3769 strain, AMK: combined with AMK at 1/4 MIC; for EC99, S-3769 strain, GM: combined with GM at 1/4 MIC
How it was run: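 P. aeruginosa S-3769 (clinical isolate, MexY overexpressed) grown 16–20 h in CAMHB, 10^4 to 5 CFU/well, with AMK or GM at ¼ MIC plus test compound 0–800 μM. Growth read as OD595; EC99 is the lowest compound concentration giving ≥99% growth inhibition.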

Row | Compound | EC99, mexB (PA), AZT (mexB (PA) strain) | EC99, mexB (PA), LVFX (mexB (PA) strain) | EC99, mexB (PA), TC (mexB (PA) strain) | EC99, S-3769 strain, AMK (S-3769 strain) | EC99, S-3769 strain, GM (S-3769 strain)
1 | CCOc1ccc(O)c(F)c1CN1CCN(C(=O)[C@H](N)C2CCN(CCc3cc(Cl)ccc3-c3ccccc3)CC2)CC1 [Example 104, hydrochloride of (R)-2-amino-2-(1-(2-(4-chloro-[1,1′-biphenyl]-2-yl)ethyl)piperidin-4-yl)-1-(4-(6-ethoxy-2-fluoro-3-hydroxybenzyl)piperazin-1-yl)ethan-1-one] | A (12.5 μM<EC99≤25 μM) | B (25 μM<EC99≤100 μM) | A (12.5 μM<EC99≤25 μM) | S (EC99≤12.5 μM) | S (EC99≤12.5 μM)
2 | CCOc1cccc(F)c1CN1CCN(C(=O)[C@H](N)C2CCN(CCc3cc(Cl)ccc3-c3ccccc3O)CC2)CC1 [Example 107, (R)-2-amino-2-(1-(2-(4-chloro-2′-hydroxy-[1,1′-biphenyl]-2-yl)ethyl)piperidin-4-yl)-1-(4-(2-ethoxy-6-fluorobenzyl)piperazin-1-yl)ethan-1-one] | A (12.5 μM<EC99≤25 μM) | A (12.5 μM<EC99≤25 μM) | A (12.5 μM<EC99≤25 μM) | A (12.5 μM<EC99≤25 μM) | A (12.5 μM<EC99≤25 μM)
3 | CCOc1cccc(F)c1CN1CCN(C(=O)[C@H](N)C2CCN(CCc3cc(Cl)ccc3-c3ccc(F)cc3O)CC2)CC1 [Example 108, Hydrochloride of (R)-2-amino-2-(1-(2-(4-chloro-4′-fluoro-2′-hydroxy-[1,1′-biphenyl]-2-yl)ethyl)piperidin-4-yl)-1-(4-(2-ethoxy-6-fluorobenzyl)piperazin-1-yl)ethan-1-one] | B (25 μM<EC99≤100 μM) | B (25 μM<EC99≤100 μM) | A (12.5 μM<EC99≤25 μM) | S (EC99≤12.5 μM) | A (12.5 μM<EC99≤25 μM)
4 | CCOc1cccc(F)c1CN1CCN(C(=O)[C@H](N)C2CCN(CCc3ccccc3-c3ccccc3)CC2)CC1 [Example 109, hydrochloride of (R)-2-(1-(2-([1,1′-biphenyl]-2-yl)ethyl)piperidin-4-yl)-2-amino-1-(4-(2-ethoxy-6-fluorobenzyl)piperazin-1-yl)ethan-1-one] | B (25 μM<EC99≤100 μM) | C (100 μM<EC99) | B (25 μM<EC99≤100 μM) | 4 µM | A (12.5 μM<EC99≤25 μM)
5 | CCOc1cccc(F)c1CN1CCN(C(=O)[C@H](N)C2CCN(CCc3ccccc3F)CC2)CC1 [Example 121, Hydrochloride of (R)-2-amino-1-(4-(2-ethoxy-6-fluorobenzyl)piperazin-1-yl)-2-(1-(2-fluorophenethyl)piperidin-4-yl)ethan-1-one] | C (100 μM<EC99) | C (100 μM<EC99) | C (100 μM<EC99) | B (25 μM<EC99≤100 μM) | B (25 μM<EC99≤100 μM)
6 | CCOc1cccc(F)c1CN1CCN(C(=O)[C@H](N)C2CCN(CCc3ccccc3OC)CC2)CC1 [Example 122, Hydrochloride of (R)-2-amino-1-(4-(2-ethoxy-6-fluorobenzyl)piperazin-1-yl)-2-(1-(2-methoxyphenethyl)piperidin-4-yl)ethan-1-one] | C (100 μM<EC99) | C (100 μM<EC99) | C (100 μM<EC99) | B (25 μM<EC99≤100 μM) | A (12.5 μM<EC99≤25 μM)
7 | CCOc1cccc(F)c1CN1CCN(C(=O)[C@H](N)C2CCN(CCC3CCCCO3)CC2)CC1 (stereo partly shown) [Example 123] | C (100 μM<EC99) | C (100 μM<EC99) | C (100 μM<EC99) | C (100 μM<EC99) | C (100 μM<EC99)
8 | CCOc1cccc(F)c1CN1CCN(C(=O)[C@H](N)C2CCN(CCc3cc(Cl)ccc3-c3ccccc3)CC2)CC1 [Example 137, (R)-2-amino-2-(1-(2-(4-chloro-[1,1′-biphenyl]-2-yl)ethyl)piperidin-4-yl)-1-(4-(2-ethoxy-6-fluorobenzyl)piperazin-1-yl)ethan-1-one] | S (EC99≤12.5 μM) | A (12.5 μM<EC99≤25 μM) | A (12.5 μM<EC99≤25 μM) | S (EC99≤12.5 μM) | S (EC99≤12.5 μM)
9 | CCOc1cccc(F)c1CN1CCN(C(=O)[C@H](N)C2CCN(CCc3cc(Cl)ccc3-c3ccccc3F)CC2)CC1 [Example 139, hydrochloride of (R)-2-amino-2-(1-(2-(4-chloro-2′-fluoro-[1,1′-biphenyl]-2-yl)ethyl)piperidin-4-yl)-1-(4-(2-ethoxy-6-fluorobenzyl)piperazin-1-yl)ethan-1-one] | A (12.5 μM<EC99≤25 μM) | A (12.5 μM<EC99≤25 μM) | A (12.5 μM<EC99≤25 μM) | S (EC99≤12.5 μM) | S (EC99≤12.5 μM)
10 | CCOc1cccc(F)c1CN1CCN(C(=O)[C@H](N)C2CCN(CCc3c[nH]c4ccccc34)CC2)CC1 [Example 148, hydrobromide of (R)-2-(1-(2-(1H-indol-3-yl)ethyl)piperidin-4-yl)-2-amino-1-(4-(2-ethoxy-6-fluorobenzyl)piperazin-1-yl)ethan-1-one] | C (100 μM<EC99) | C (100 μM<EC99) | B (25 μM<EC99≤100 μM) | S (EC99≤12.5 μM) | S (EC99≤12.5 μM)
11 | CCOc1cccc(F)c1CN1CCN(C(=O)[C@H](N)C2CCN(CCc3cccc4ccc(OC)cc34)CC2)CC1 [Example 149, Hydrobromide of (R)-2-amino-1-(4-(2-ethoxy-6-fluorobenzyl)piperazin-1-yl)-2-(1-(2-(7-methoxynaphthalen-1-yl)ethyl)piperidin-4-yl)ethan-1-one] | C (100 μM<EC99) | C (100 μM<EC99) | B (25 μM<EC99≤100 μM) | S (EC99≤12.5 μM) | S (EC99≤12.5 μM)
12 | CCOc1cccc(F)c1CN1CCN(C(=O)[C@H](N)C2CCN(CCc3csc4ccccc34)CC2)CC1 [Example 150, Hydrobromide of (R)-2-amino-2-(1-(2-(benzo[b]thiophen-3-yl)ethyl)piperidin-4-yl)-1-(4-(2-ethoxy-6-fluorobenzyl)piperazin-1-yl)ethan-1-one] | B (25 μM<EC99≤100 μM) | C (100 μM<EC99) | B (25 μM<EC99≤100 μM) | S (EC99≤12.5 μM) | S (EC99≤12.5 μM)
13 | CCOc1cccc(F)c1CN1CCN(C(=O)[C@H](N)C2CCN(CCC3CCCc4ccccc43)CC2)CC1 (stereo partly drawn) [Example 151, Hydrobromide of (2R)-2-amino-1-(4-(2-ethoxy-6-fluorobenzyl)piperazin-1-yl)-2-(1-(2-(1,2,3,4-tetrahydronaphthalen-1-yl)ethyl)piperidin-4-yl)ethan-1-one] | C (100 μM<EC99) | C (100 μM<EC99) | C (100 μM<EC99) | B (25 μM<EC99≤100 μM) | B (25 μM<EC99≤100 μM)
14 | CCOc1cccc(F)c1CN1CCN(C(=O)[C@H](N)C2CCN(CCc3coc4ccccc34)CC2)CC1 [Example 152, Hydrobromide of (R)-2-amino-2-(1-(2-(benzofuran-3-yl)ethyl)piperidin-4-yl)-1-(4-(2-ethoxy-6-fluorobenzyl)piperazin-1-yl) ethan-1-one] | C (100 μM<EC99) | C (100 μM<EC99) | C (100 μM<EC99) | S (EC99≤12.5 μM) | S (EC99≤12.5 μM)
15 | CCOc1cccc(F)c1CN1CCN(C(=O)[C@H](N)C2CCN(CCC3COc4ccccc4C3)CC2)CC1 (stereo partly drawn) [Example 153, Hydrobromide of (2R)-2-amino-2-(1-(2-(chroman-3-yl)ethyl)piperidin-4-yl)-1-(4-(2-ethoxy-6-fluorobenzyl)piperazin-1-yl)ethan-1-one] | C (100 μM<EC99) | C (100 μM<EC99) | C (100 μM<EC99) | S (EC99≤12.5 μM) | S (EC99≤12.5 μM)
16 | CCOc1cccc(F)c1CN1CCN(C(=O)[C@H](N)C2CCN(CCn3ccc4ccccc43)CC2)CC1 [Example 159, Hydrobromide of (R)-2-(1-(2-(1H-indol-1-yl)ethyl)piperidin-4-yl)-2-amino-1-(4-(2-ethoxy-6-fluorobenzyl)piperazin-1-yl)ethan-1-one] | C (100 μM<EC99) | C (100 μM<EC99) | C (100 μM<EC99) | B (25 μM<EC99≤100 μM) | C (100 μM<EC99)
17 | CCOc1cccc(F)c1CN1CCN(C(=O)CN2CCC(O)(CCc3ccccc3)CC2)CC1 [Example 422, hydrochloride of 1-(4-(2-ethoxy-6-fluorobenzyl)piperazin-1-yl)-2-(4-hydroxy-4-phenethylpiperidin-1-yl)ethan-1-one] | A (12.5 μM<EC99≤25 μM) | B (25 μM<EC99≤100 μM) | A (12.5 μM<EC99≤25 μM) | C (100 μM<EC99) | C (100 μM<EC99)
